Ten molecules from patent publication US11666559B2, “Spiro-lactam compounds, process and uses thereof” (UNIVERSIDADE DE COIMBRA, priority 2017, dated 2023) can be followed below.

One series concerns Lactobacillus rhamnosus. Description: Anti-bacterial activity, agar diffusion method. It counts as cell-based. The note with it: at the concentration of 1 mg/ml. The procedure:
(§1) In an embodiment, anti-bacterial activity of the compounds now disclosed was determined according to CLSI guidelines. The following bacteria were used: reference strains E. coli ATCC 10536, Staphylococcus aureus ATCC 6538, Bacillus subtilis ATCC 6633 and Enterococcus faecalis ATCC 29212; clinical strains of E. coli and Pseudomonas aeruginosa isolated in our laboratory; and strains of Lactobacillus rhamnosus and Lactobacillus plantarum also isolated in our laboratory. The Minimum Inhibitory Concentration (MIC) was determined by the agar diffusion method, in plates of Mueller-Hinton agar or Rogosa agar (for Lactobacilli). Briefly, 10^8 cfu/ml bacterial suspensions were prepared in sterile water and spread in the culture media. Sterile disks containing different concentrations of P3 were placed on the inoculated surface. Plates were incubated at 37° C. for 24 h or 48 h. Lactobacilli were incubated at microaerophilic conditions. A negative control made of sterile water was used. Disks of amoxicillin and imipenem were used as positive controls.
On the technique in general: In agar diffusion tests the substance spreads into inoculated agar from a disc or well.

The test system of series [1] is Staphylococcus aureus ATCC 6538. Description: Anti-bacterial activity, agar diffusion method. The note with it: at the concentration of 1 mg/ml. It counts as cell-based. How it is done:
as §1

Series [2] has as its system Escherichia coli (Clinical strain). Description: Anti-bacterial activity, agar diffusion method. It counts as cell-based. The conditions noted are these: at the concentration of 1 mg/ml. The procedure:
as §1

The subject of the next series is Lactobacillus plantarum. Description: Anti-bacterial activity, agar diffusion method. The conditions noted are these: at the concentration of 1 mg/ml. The format is cell-based. How it is done: as §1
The test system of series [3] is Escherichia coli ATCC 10536. Description: Anti-bacterial activity, agar diffusion method. The format is cell-based. The note with it: at the concentration of 1 mg/ml. The procedure:
as §1

Series [4] concerns Enterococcus faecalis ATCC 29212. Description: Anti-bacterial activity, agar diffusion method. The format is cell-based. The note with it: at the concentration of 1 mg/ml. The procedure: as §1
In series [5] the test system is Pseudomonas aeruginosa (Clinical strain). Description: Anti-bacterial activity, agar diffusion method. The format is cell-based. The note with it: at the concentration of 1 mg/ml. How it is done: as §1
Another series has as its system TZM-bl cells. Description: Cellular viability assay (alamarBlue) in TZM-bl cells. From the text:
In an embodiment, the cellular cytotoxicity of 17 spiro-β-lactams was investigated in TZM-bl cells using the AlamarBlue assay as recommended by the manufacturer (Invitrogen, USA). TZM-bl, previously designated JC53-bl (clone 13) is a HeLa cell line. The parental cell line (JC.53) stably expresses large amounts of CD4, CCR5 and CXCR4. The TZM-bl cell line was generated from JC.53 cells by introducing separate integrated copies of the luciferase and […] genes under control of the HIV-1 promoter. The TZM-bl cell line is highly sensitive to infection with diverse isolates of HIV.
In an embodiment, the cellular viability assay was carried out as follows: the potential in vitro cytotoxicity of all BSS compounds was evaluated in TZM-bl cells. TZM-bl cells (10000 cells/well in 96-well plates) were incubated in absence or presence of serial-two-fold dilutions of the compounds in growth medium (GM), with starting concentration of 100 μg/ml and a final concentration of 0.781 μg/ml. After 48 hours, cell viability was examined with alamarBlue reagent (Invitrogen, USA) according to manufacturer's instructions. Briefly, 10 μl of alamarBlue reagent was added to each well. After 4 hours at 37° C., the fluorescence was measured in Tecan Infinite M200 (excitation wavelength 550 nm and emission wavelength 600 nm).
In an embodiment, at least two independent experiments have been performed for each cytotoxicity analysis.
In an embodiment, for each assay there were medium controls (only growth medium), cell controls (cells without test compound) and cytotoxicity controls (a compound that kill cells—SDS).
For orientation: Alamar Blue is a resazurin reagent that responds to reducing activity.

Series [6] concerns Bacillus subtillis ATCC 6633. Description: Anti-bacterial activity, agar diffusion method. The format is cell-based, Bacillus subtilis. The conditions noted are these: at the concentration of 1 mg/ml. How it is done:
as §1

For the next series, the system named is HIV-2. How it is done:
(§2) In an embodiment, TZM-bl cells (AIDS Research and Reference Reagent Program, National Institutes of Health, USA) were cultured in complete growth medium that consists of Dulbecco's minimal essential medium (DMEM) supplemented with 10% fetal bovine serum (FBS), 100 U/ml of penicillin-streptomycin (Gibco/Invitrogen, USA), 1 mM of sodium pyruvate (Gibco/Invitrogen, USA), 2 mM of L-glutamine (Gibco/Invitrogen, USA) and 1 mM of non-essential amino acids (Gibco/Invitrogen, USA).
(§3) In an embodiment, the primary isolates 93AOHDC249, 93AOHDC250, 01PTHDECJN and 03PTHCC9, used in this study were previously isolated, titrated and characterized for co-receptor usage. HIV reference strain SG3.1 was obtained by transfection of HEK293T cells with pSG3.1 (HIV-1) plasmid using Fugene 6 reagent (Roche, Switzerland) according to manufacturer's instructions.
(§4) In an embodiment, the 50% tissue culture infectious dose (TCID50) of the virus was determined in a single-round viral infectivity assay using a luciferase reporter gene assay in TZM-bl cells and calculated using the statistical method of Reed and Muench^27.
(§5) In an embodiment, the antiviral activity of the compounds was determined in a single-round assay with TZM-bl cells as previously described ^26. Cells were infected with 200 TCID50 of virus in the presence of serial fold dilutions of the BSS compounds in GM, supplemented with DEAE-dextran (19.7 μg/ml). After 48 h of infection, luciferase expression was quantified with the One-Glow luciferase assay substrate reagent (Promega, USA) according to manufacturer's instructions. Briefly, a volume of reagent equal to that of the culture medium in each well was added. For 96-well plates, typically 100 μl of reagent is added to the cells grown in 100 μl of medium. After an incubation of 3 minutes at room temperature to allow complete cell lysis luminescence was measured in Tecan Infinite M200. Background luminescence was measured by using control wells that contained only target cells and GM. Maraviroc (CCR5 antagonist), T1249 (fusion inhibitor) and AMD3100 (CXCR4 antagonist) were used as positive controls of the antiviral activity. At least two independent experiments were performed for each analysis and each assay was set up in triplicate wells.
(§6) In an embodiment, dose-response curves were estimated from the percentage of inhibition of infection (y-axis) against logo of concentration of each compound (x-axis) using the sigmoidal dose-response equation (variable slope) in GraphPad Prism version 5.00 for Windows (GraphPad Software, San Diego Calif. USA, www.graphpad.com). IC50 and IC90 values were determined from this curve. IC50 and IC90 values correspond to the concentration of compound that inhibits viral replication in 50% and 90%, respectively.

In the next series the test system is HIV-1. The conditions noted are these: for IC50 / IC90: TZM-bl cells. How it is done: as §2, §3, §4, §5, §6
Another series deals with P. berghei liver stages. Description: In vitro activity against the liver stage of Plasmodium infection (luciferase assay in Huh7 cells). The format is cell-based, Plasmodium berghei. The note with it: P. berghei liver stages in Huh7 cells. How it is done: FIG. 6: Compound activity against P. berghei liver stages. Anti-Plasmodial activity (infection axis, bars) and toxicity to hepatoma cells (cell confluency axis, circles) are shown. Infection loads of Huh7 cells, a human hepatoma cell line, were determined by bioluminescence measurements of cell lysates 48 h after infection with luciferase-expressing P. berghei parasites. Luciferase assay in 96 well-plate; 10 000 Huh7 cells/well+10 000 PbA-LuciGFPcon spz/well.
In an embodiment, the in vitro activity against the liver stage of Plasmodium infection was also carried out: inhibition of liver stage Plasmodium infection by test compounds was determined by measuring the luminescence intensity in Huh-7 cells infected with a firefly luciferase-expressing P. berghei line, as previously described. Briefly, Huh-7 cells, a human hepatoma cell line, were cultured in 1640 RPMI medium supplemented with 10% v/v fetal bovine serum, 1% v/v nonessential amino acids, 1% v/v penicillin/streptomycin, 1% v/v glutamine, and 10 mM 4-(2-hydroxyethyl)-1-piperazineethanesulfonic acid (HEPES), pH 7, and maintained at 37° C. with 5% CO2. For infection assays, Huh-7 cells (1.0×10^4 per well) were seeded in 96-well plates the day before drug treatment and infection. The medium was replaced by medium containing the appropriate concentration of each compound approximately 1 h prior to infection with sporozoites freshly obtained through disruption of salivary glands of infected female Anopheles stephensi mosquitoes. Sporozoite addition was followed by centrifugation at 1700×g for 5 min. Parasite infection load was measured 48 h after infection by a bioluminescence assay (Biotium). The effect of the compounds on the viability of Huh-7 cells was assessed by the AlamarBlue assay (Invitrogen, U.K.) using the manufacturer's protocol.

[7] abbreviates: 03PTHCC19, CCR5 tropic HIV-2 isolate, TZM-bl cells, wa = without antiviral activity.
Setting [8] is: 93AOHDC249, CCR5 tropic HIV-1 primary isolate.
Setting [9] is: SG3.1, CXCR4 tropic HIV-1 adapted isolate.

The structures appear in SMILES notation. Like-named read-outs stand apart in the source and are kept apart here.

For the molecule `COC(=O)C1=C(C(=O)OC)[C@@]2(N=N1)C(=O)N1[C@@H](C(=O)O)C(C)(C)S[C@@H]12` [BSS-587, (2,3′R,5R)-4′,5′-bis(methoxycarbonyl)-3,3-dimethyl-7-oxo-4-thia-1-azaspiro[bicyclo[3.2.0]heptane-6,3′-pyrazole]-2-carboxylic acid], the inhibitory activity entry (in the series with Lactobacillus rhamnosus; in [1]; in series [2]; with Lactobacillus plantarum; in series [3]; in series [4]) was “no inhibitory activity” in each case. The inhibitory activity entry in series [5] and in series [6] was “no inhibitory activity” throughout. The CC50 in the series with TZM-bl cells (Table 2, TZM-bl cells, 48 hours, alamarBlue) is 136 µM.
In the case of `CC(=O)C1=NNC2(C1)C(=O)N1C(C(=O)O)C(C)(C)SC12` (centres unmarked) [BSS-591, Spiro[penicillanic-6,5′-(3-acetyl-2-pyrazoline)] acid], the inhibitory activity result (in the series on Lactobacillus rhamnosus; in series [1]; in series [2]; in the series on Lactobacillus plantarum; in [3]; in series [4]) was “no inhibitory activity” in each case. Besides, the inhibitory activity result in [5] and in series [6] was “no inhibitory activity” throughout. This molecule yielded a CC50 in the series on TZM-bl cells of 164 µM.
On to `CCOC(=O)C1=NNC2(C1)C(=O)N1C(C(=O)O)C(C)(C)SC12` (centres unmarked) [BSS-597, Spiro[penicillanic-6,5′-(3-ethoxycarbonyl-2-pyrazoline)] acid], for which the inhibitory activity entry (in the series with Lactobacillus rhamnosus; in series [1]; in series [2]; with Lactobacillus plantarum; in series [3]; in series [4]) was “no inhibitory activity” each time. Besides, the inhibitory activity entry in [5] and in [6] was “no inhibitory activity” in each case. Further, the CC50 in the series on TZM-bl cells amounted to 152 µM.
On to `COC(=O)C1C(C(=O)OCc2ccccc2)=CCC12C(=O)N1[C@@H](C(=O)OC(c3ccccc3)c3ccccc3)C(C)(C)S[C@@H]12` (some centres unmarked) [BSS-722A], for which the “anti-HIV activity against HIV-2 (in words)” value in the series with HIV-2 is recorded as “potent activity”. The “TI (in vitro therapeutic index, CC50/IC50)” value worked out at 105.29 in the series with HIV-2 (03PTHCC19, CCR5 tropic HIV-2 isolate); 161.80 with HIV-1 (setting [8]); 82.64 with HIV-1 (setting [9]). Also, the IC50 (in general, the concentration that inhibits the measured activity by half) in the series with HIV-2 (setting [7]) came to 0.51 µM; with HIV-1 (setting [8]), 0.332 µM; in the series on HIV-1 (setting [9]), 0.65 µM. The IC90 – broadly, the point of the concentration-response curve where the effect stands at 90% – in the series on HIV-2 (setting [7]) was found to be 1.18 µM; in the series with HIV-1 (setting [8]), 0.701 µM; with HIV-1 (setting [9]) it was 1.09 µM. The “MPI (maximum percentage of inhibition)” value with HIV-2 (03PTHCC19, CCR5 tropic HIV-2 isolate, wa = without antiviral activity) is on record as 90%; with HIV-1 (setting [8]) it was 99%; in the series on HIV-1 (setting [9]) it was 97%. For the same molecule, the “anti-HIV activity against HIV-1 (in words)” value with HIV-1 is given as “potent activity”. Also, the CC50 came out at 53.7 µM in the series with TZM-bl cells and 53.7 µM in the series with TZM-bl cells (read-out: CC50 (cytotoxic concentration 50%), Table 1, TZM-bl cells, 48 hours, alamarBlue). Also, the “anti-Plasmodium activity (in words)” value in the series on P. berghei liver stages is “presented activity”.
In the series on TZM-bl cells, `CC(=O)C1C(C(=O)OCc2ccccc2)=CCC12C(=O)N1[C@@H](C(=O)OC(c3ccccc3)c3ccccc3)C(C)(C)S[C@@H]12` (some centres unmarked) [BSS-793B] had a CC50 of 47.7 µM.
On to `CC(=O)C1C(C)C=C(C(=O)OCc2ccccc2)C12C(=O)N1[C@@H](C(=O)OC(c3ccccc3)c3ccccc3)C(C)(C)S[C@@H]12` (some centres unmarked) [BSS-794B], for which the CC50 in the series on TZM-bl cells was found to be 49 µM.
`CC1(C)S[C@H]2N(C(=O)C23C(C(=O)c2ccccc2)N=NC3c2ccccc2)[C@H]1C(=O)OC(c1ccccc1)c1ccccc1` (some centres unmarked) [BSS-971S] returned a CC50 in the series on TZM-bl cells of 82 µM.
Still for that read-out and setting: the value for `CC(C)(C)OC(=O)C1=NNC(c2ccccc2)C12C(=O)N1[C@@H](C(=O)OC(c3ccccc3)c3ccccc3)C(C)(C)S[C@@H]12` (some centres unmarked) [BSS-973C] was 79.8 µM; that for `CC(=O)C1=NNC(c2ccccc2)C12C(=O)N1[C@@H](C(=O)OC(c3ccccc3)c3ccccc3)C(C)(C)S[C@@H]12` (some centres unmarked) [BSS-974C] was 80.8 µM; that for `CC(=O)C1N=NC(c2ccccc2)C12C(=O)N1[C@@H](C(=O)OC(c3ccccc3)c3ccccc3)C(C)(C)S[C@@H]12` (some centres unmarked) [BSS-974S] was 91.9 µM.
